Reference: patent publication US7425579B2, “Methods for inhibiting activity of polyamine transporters” (Universite Laval, priority 1998, dated 2008)

Key:
[1] = Plasma level of BNSD-X after gavage; format: in vivo, mice; settings: solid BNSD-X, 1 g/kg body weight by gavage
[2] = test system: CHO-K1, Jurkat, L1210, MDA-MB-231, ZR-75-1 and MCF-7 cells; assay: Reversal of DFMO-induced cytostasis by exogenous spermidine in a variety of mammalian cell lines; format: cell-based; settings: 50-100 μM BNSD-X
Method: FIGS. 5A, 5B, 5C, 5D, 5E and 5F are graphs representing that a compound used in a method according to a preferred embodiment antagonizes rescue of DFMO-induced cytostasis by exogenous spermidine. In particular, CHO-K1 (A), Jurkat (B), L1210 (C), MDA-MB-231 (D), ZR-75-1 (E) and MCF-7 cells (F) were grown to near confluency or saturation (for 4 to 11 d according to the cell line considered) with the indicated concentrations of spermidine in medium containing 1 mM aminoguanidine, in the presence of DFMO (●), BNSD-X (□), DFMO plus BNSD-X (▪), or in the absence of either agent (∘), and total DNA content per culture was then determined. The optimal concentration of either DFMO (1 to 5 mM) or BNSD-X (50 or 100 μM) was used for the each cell line as determined in pilot experiments. Data are presented as the mean±SD for triplicate cultures from one out of at least three identical experiments for each cell line;
To determine the ability of polyamine transport antagonists to potentiate DFMO-induced inhibition of cell proliferation in the presence of exogenous polyamines, cells were grown for the indicated period in growth medium supplemented with 1 mM aminoguanidine, and either DFMO (1 to 5 mM), the indicated transport inhibitor (50 or 100 μM), or the combination thereof, as well as increasing concentrations of spermidine (0.1 to 300 μM). Fresh medium was added every other day, and cell mass was determined at various time points during the period of exponential growth, or at the end of the experimental period. For the latter experiments, the FBS supplement was replaced with dextran-coated charcoal-treated FBS (5%, v/v) plus 0.5 μg/ml insulin in the case of T-47D, ZR-75-1 and MCF-7 cells (U.S. Pat. No. 6,083,496).

[3] = test system: CD-1 mice; assay: Chronic toxicity of BNSD-X, 1% in drinking water for 14 d; format: in vivo; settings: 1% (w/v) in drinking water
Method: To assess the relative toxicity of BNSD-X, the drug was administered as a 1% (w/v) solution in the drinking water to CD-1 mice with ad libitum access for 14 d. Mice were weighed every other day during the experiment. At the end of the experiment, mice were sacrificed, and organs (kidneys, liver, and spleen) were immediately weighed. Organs were then saved in 10% formalin for morphological examination by an in-house pathologist at the CHUL Research Center (Quebec City, Canada). Acute and subacute oral toxicity of BNSD-X was also separately determined by administering the drug by gavage (0-5 g/kg body weight).
The chronic toxicity of BNSD-X was next evaluated by allowing CD-1 mice to drink a 1% (w/v) solution of the drug for 14 d, and then sacrificing animals for the histological examination of the liver, kidneys and spleen.

[4] = test system: Jurkat, LAN-1, L1210, T-47D, ZR-75-1 and MDA-MB-231 cells; assay: Effect of BNSD-X on cell proliferation in various mammalian cell lines; format: cell-based; settings: 1 mM aminoguanidine; 4 to 11 d
Method: FIGS. 3A and 3B are graphs showing the effect compounds used in a method according preferred embodiment of the present invention, on cell proliferation. In particular, they relate to the effect of selected BSD and BNSD derivatives on T-47D cell proliferation. Cells were incubated for 9 d with the indicated concentrations of BSD-2 (∘), BNSD-4 (●), BSD-4 (□), BNSD-6 (▪), BSD-10 (Δ), BSD-4-ene (▴) and BSD-4-yne (▾) in medium containing 1 mM aminoguanidine, and total DNA content per culture was then determined. B, Effect of BNSD-X (N,N,N′,N′-tetrakis-(3-aminopropyl)-p-diaminoxylene) on cell proliferation in various mammalian cell lines. Jurkat (∘), LAN-1 (●), L1210 (□), T-47D (▪), ZR-75-1 (Δ) and MDA-MB-231 (▴) cells were grown to near confluency or saturation (for 4 to 11 d according to the cell line considered) with the indicated concentrations of BNSD-X in the presence of 1 mM aminoguanidine, and total DNA content per culture was then determined. Data are given as the mean±SD for triplicate cultures from one out of at least two identical experiments;
The effect of transport inhibitors on cell proliferation was evaluated by determination of cell number (L1210, Jurkat) using electronic sizing with a Model ZM Coulter counter (Coulter Electronics, Hialeah, Fla.), or DNA content per culture (for all other cell lines) with the 3,5-diaminobenzoic acid assay. […]

Structure (SMILES): NCCCN(CCCN)Cc1ccc(CN(CCCN)CCCN)cc1 [28a, N,N,N′,N′-tetrakis-(3-aminopropyl)-p-diaminoxylene]
- plasma half-life [1]: > 6 h
- plasma concentration after gavage ([1]; after 1 h, n=5): 450 ± 71 nM
- increase of the spermidine concentration required to fully restore cell proliferation upon treatment with DFMO ([2]; DFMO 1 to 5 mM): 10 to 100 fold
- effect of the inhibitor alone on cell proliferation ([2]; except L1210 and, to a lesser degree, MCF-7 cells): little or no effect
- behavior and general body appearance [3]: no incidence on the behavior nor general body appearance of the animals
- histological morphology of the liver, kidney and spleen ([3]; light microscopy): no observable differences
- effect on proliferation of a panel of mammalian cell lines [4]: remarkably inert
